Experiments:
[1] = test system: Paclitaxel-induced allodynia; assay: Paclitaxel-induced allodynia in Sprague Dawley rats (von Frey assay); assay type: in vivo
Protocol: Example 5: Paclitaxel-induced Allodynia in Sprague Dawley Rats
Therapy however is often associated with the unwanted side affects of painful peripheral neuropathy.
Male Sprague Dawley rats [200-250 g] (Harlan Laboratories Inc., Livermore, Calif.) were housed three per cage and maintained in a humidity-controlled (40-60%) and temperature-controlled (68-72° F.) facility on a 12 h:12 h light/dark cycle (lights on at 6:30 am) with free access to food (Harlan Teklad, Orange, Calif., Rodent Diet 8604) and water. Rats were allowed one week of habituation to the animal facility before starting treatment.
Rats were treated intraperitoneally, with 2 mg/kg of paclitaxel (Sigma Aldrich, Saint Louis, Mo.) in 10% Cremophor vehicle (500 μL) on days 0, 2, 4, and 6.
Tactile allodynia was tested using von Frey filaments. Briefly, the von Frey assay was performed using the standardized up down method with von Frey filaments, that determine the tactile sensitivity of the paw. By applying the increasingly or decreasingly thicker filaments to the paw in a logarithmic scale of actual force, a linear scale of perceived intensity is determined.
Eight days after the start of paclitaxel dosing, a baseline measurement (von Frey assay) was performed prior to dosing of compounds. […] As a positive control, rats were dosed intraperitoneally with 100 mg/kg gabapentin in water. […]

[2] = Dynamic moisture-sorption (DMS) analysis; assay type: physicochemical
Protocol: Example 9: Dynamic Moisture-Sorption Analysis
A dynamic moisture-sorption (DMS) study was conducted using a dynamic moisture-sorption analyzer, VTI Corporation, SGA-100. The instrument was calibrated using polyvinyl pyrrolidone (PVP) and NaCl. Samples were prepared for DMS analysis by placing 5 mg to 20 mg of a sample in a tared sample holder. The sample was placed on the hang-down wire of the VTI balance. A drying step was run, typically at 40° C. and 0.5-1% RH for 1 h. The isotherm temperature is 25° C. Defined % RH holds typically ranged from 10% RH to 90% RH, with intervals of 10 to 20% RII. A % weight change smaller than 0.010% over 10 min, or up to 2 h, whichever occurred first, was required before continuing to the next % RH hold. The water content of the sample equilibrated as described above was determined at each % RH hold.

| Weight (% Change) ([2]; Sample RH […], elapsed time 46.6 min, 25.46) | Weight (% Change) ([2]; adsorption, Sample RH 29.94%, elapsed time 71.4 min) | Weight (% Change) ([2]; adsorption, Sample RH 49.86%, elapsed time 91.1 min) | Weight (% Change) ([2]; adsorption, Sample RH 69.77%, elapsed time 111.2 min) | Weight (% Change) ([2]; adsorption, Sample RH 79.70%, elapsed time 129.1 min) | Weight (% Change) ([2]; adsorption, Sample RH 89.72%, elapsed time 160.1 min) | Weight (% Change) ([2]; desorption, Sample RH 10.06%, elapsed time 234.4 min) | Weight (% Change) ([2]; desorption, Sample RH 29.99%, elapsed time 218.6 min) | Weight (% Change) ([2]; desorption, Sample RH 50.07%, elapsed time 200.1 min) | Weight (% Change) ([2]; desorption, Sample RH 70.11%, elapsed time 180.1 min) | SMILES | paw withdrawal threshold (PWT) ([1]; 10 mg/kg orally in PEG400, paclitaxel treated rats, von Frey assay 30, 60 and 180 minutes after dosing, in comparison with vehicle and gabapentin) | time of maximum efficacy post-dosing ([1]; 10 mg/kg orally, paclitaxel treated rats, von Frey assay time course) [h] | DMS weight change ([2]; adsorption/desorption isotherm, from about 10% relative humidity (RH) to about 90% RH) | DMS weight change ([2]; after a 10% RH to 90% RH back to 10% RH cycle) |
| --- | --- | --- | --- | --- | --- | --- | --- | --- | --- | --- | --- | --- | --- | --- |
| – | – | – | – | – | – | – | – | – | – | CC(C)(CO)NC(=O)c1nn(-c2ccc(F)cc2F)c2c1C[C@H]1C[C@@H]21 [Compound 493, (1aR,5aR)-2-(2,4-Difluoro-phenyl)-1a,2,5,5a-tetrahydro-1H-2,3-diaza-cyclopropa[a]pentalene-4-carboxylic Acid (2-Hydroxy-1,1-dimethyl-ethyl)-amide] | increase | 1 | – | – |
| 0 | 0.151 | 0.282 | 0.482 | 0.581 | 0.762 | 0.080 | 0.181 | 0.364 | 0.526 | CC(C)(C)[C@@H](CO)NC(=O)c1nn(-c2c[n+]([O-])ccn2)c2c1C[C@@H]1C[C@H]21 [Compound 699 (Anhydrous Form), (1aS,5aS)-2-(4-Oxy-pyrazin-2-yl)-1a,2,5,5a-tetrahydro-1H-2,3-diaza-cyclopropa[a]pentalene-4-carboxylic Acid ((S)-1-Hydroxymethyl-2,2-dimethyl-propyl)-amide] | – | – | 1.0% or less weight change from about 10% relative humidity | (RH) to about 90% RH; and about 0.1% or less weight change |

— patent US10632134B2, “Cannabinoid receptor modulators” (Arena Pharmaceuticals, Inc., priority 2011, dated 2020)
